Publication PMC7217877, “N-AS-triggered SPMs are direct regulators of microglia in a model of Alzheimer’s disease” (Nature Communications, 2020)
Several values for one entry are separate records, joined by “and”; a condition that tells them apart may be missing. Equal entries are not always repeated.

Tests used:
APP/PS1 mice = test: ac-S565 COX2 in microglia and neuron of treated mice (immunofluorescence, western blot, Fig 4c,d); assay type: in vivo, mouse; details: APP/PS1 + N-AS, individual values
From the text: Adult neurons and microglia were isolated from the mice brain as previously described. In brief, the cortex of WT (1, 3, 5, or 9-months-old), APP/PS1 (1, 3, 5, or 9-months-old), APP/PS1 treated with N-AS (9-months-old) or APP/PS1 treated with aspirin (9-months-old) mice were minced in Hibernate A (Gibco)/B27 (Invitrogen) medium and dissociated using papain (Worthington) solution. After tissue trituration, cells were separated by Optiprep (Sigma-Aldrich) density gradient centrifugation. The purity of the fractionated neurons and microglia were acutely confirmed by neuronal (NeuN, mouse, 1:200, Millipore, MAB377) and microglial (Iba1, rabbit, 1:1000, Wako, 019-19941) markers and the isolated neurons and microglia were acutely analyzed for the acetylation assay and lipid mediators metabololipidomics.
Thioflavin S (Sigma-Aldrich) staining was carried out according to previously described procedures. We used 6E10 (mouse, 1:100, Signet, SIG39300), anti-20G10 (mouse, 1:1000, provided by D. R. Howlett, GlaxoSmithKline, Harlow, Essex, UK) for Aβ42, anti-G30 (rabbit, 1:1000, provided by D. R. Howlett) for Aβ40, SMA (mouse, 1:400, Sigma-Aldrich, A2547), AT8 (mouse, 1:500, Thermo Fisher Scientific, MN1020), Caspase-3 (mouse, 1:200, Novus Biologicals, NB100-56708), ac-S565 (rabbit, 1:100), COX2 (mouse, 1:250, Thermo Fisher Scientific, 35-8200), Iba1 (rabbit, 1:500, Wako, 019-19941 and goat, Abcam, ab5076), NeuN (mouse, 1:500, Millipore, MAB177), GFAP (rabbit, 1:500, Dako, N1506 and chicken, 1:500, Abcam, ab4674), and Lamp1 (mouse, 1:200, Abcam, ab24170). The sections were analyzed with a laser-scanning confocal microscope (FV3000; Olympus) or with a BX51 microscope (Olympus). MetaMorph software (Molecular Devices) was used to quantification. Three-dimensional reconstruction of microglia was recorded and analyzed using IMARIS software (Bitplane)[11]. […]
Samples were lysed in RIPA buffer (Cell signaling Technologies), then subjected to SDS-PAGE and transferred to a nitrocellulose membrane. […] We performed densitometric quantification using the ImageJ software (National Institutes of Health). […]

COX2 T564A = target: T1, COX2 T564A (Homo sapiens, UniProt P35354, T564A); test: filter binding assay of [14C] N-AS to COX2; details: 0.2 uM, replicates
T1 construct: His (N); made in house
T1 sequence (P35354 18-604 T564A): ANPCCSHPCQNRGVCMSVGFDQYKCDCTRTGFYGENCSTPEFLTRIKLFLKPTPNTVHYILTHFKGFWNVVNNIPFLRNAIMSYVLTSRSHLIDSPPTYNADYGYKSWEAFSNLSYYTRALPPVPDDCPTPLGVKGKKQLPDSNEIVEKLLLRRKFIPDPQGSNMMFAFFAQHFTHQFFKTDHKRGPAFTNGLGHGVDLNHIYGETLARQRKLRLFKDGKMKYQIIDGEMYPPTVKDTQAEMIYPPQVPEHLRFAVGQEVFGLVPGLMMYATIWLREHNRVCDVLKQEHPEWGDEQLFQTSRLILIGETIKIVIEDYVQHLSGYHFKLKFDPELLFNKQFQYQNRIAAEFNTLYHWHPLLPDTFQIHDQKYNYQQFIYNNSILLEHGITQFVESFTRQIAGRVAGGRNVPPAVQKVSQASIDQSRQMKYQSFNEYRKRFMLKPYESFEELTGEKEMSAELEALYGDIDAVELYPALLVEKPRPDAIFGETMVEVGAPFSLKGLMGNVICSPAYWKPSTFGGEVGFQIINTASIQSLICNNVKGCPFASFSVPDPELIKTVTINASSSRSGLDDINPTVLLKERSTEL

For `CCCCCCCCCCCCC/C=C/[C@@H](O)[C@H](CO)NC(C)=O` [N-AS, N-((2S,3R,E)-1,3-Dihydroxyoctadec-4-en-2-yl)acetamide], the “microglia (Iba1) with ac-S565 and COX2 in cortex, quantification (Fig 4c)” value (APP/PS1 mice) was 2.146 and 2.677 and 1.427 and 1.497 and 1.3659 and 1.3538, the “ac-S565 / total COX2, western blot (Fig 4d)” value (APP/PS1 mice; Microglia) was 1.271 and 0.7861 and 0.8284 and 0.7309 and 1.0567 and 1.371 and the “ac-S565 / total COX2, western blot (Fig 4d)” value (APP/PS1 mice; Neuron) was 0.9062 and 0.3691 and 0.5034 and 0.9834 and 0.3378 and 0.4586. For the same compound, the “binding velocity (Vbinding)” value (COX2 T564A) was 0.196 nM/min and 0.240 nM/min and 0.096 nM/min.
